From the supplement of paper PMC6723410

System: GUMC-403
Assay: viability at highest tested concentration (max response) relative to DMSO (% of DMSO control); higher = less cytotoxic
Conditions: library / dose series: MIPE library, 11-point 1:3 dilution; top concentration 46.1 µM; 48 h
In short: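 Each figure stands for viability at the highest tested concentration compared with vehicle control. It was measured by CellTiter-Glo luminescence on a ViewLux after 48 h of exposure to 23 nL of pinned compound, with vehicle wells taken as 100% and empty wells as 0%. The cells were patient-derived GUMC-403 papilloma cells grown by conditional reprogramming, plated at 700/well in 5 μL F + Y medium in 1536-well plates.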

SMILES	viability
CCOc1ccc(Nc2nc(-c3c(C)nc4ccccn34)cs2)cc1	101
CCN(CC)CCCC(C)Nc1nc(C)cc(Nc2ccc3nc(C)cc(N)c3c2)n1 (configuration not stated)	106
CCN(CC)CCOC1=CC=C(NC2=NC=C3\C=C(/C(=O)N(C)C3=N2)C4=C(Cl)C=CC=C4Cl)C=C1	75.4
CCN(c1ccccc1)c1cc(NC)[n+](C)c(C)n1	115
CCC[C@H](Nc1nc(-c2ccc(NC(=O)NCC)c(OC)c2)ncc1C)c1cccnc1	94
CC1=C(/C=C/C(C)=C/C=C/C(C)=C/C(=O)O)C(C)(C)CCC1	86.6
CC(C)Oc1ccc(C(=O)N[C@H](CNC(=O)CN(C)C)Cc2ccc(-c3cn4cccc([C@H](C)O)c4n3)cc2)cc1Cl	98.1
ClC1=CC=C(CCCOC/2=N/NC(=O)C(=C2NCC3=CN=CC=C3)/Br)C=C1	83.2
CCCCC[C@H](O)/C=C/[C@H]1[C@H](O)CC(=O)[C@@H]1C/C=C\CCCC(=O)O	119
CC(=O)NC(C)c1ccc(Oc2ccc(OC(C)C)cc2)cc1 (configuration not stated)	121
CCCCc1nc2cc(/C=C/C(=O)NO)ccc2n1CCN(CC)CC	67.2
NCCc1c[nH]cn1	135
O=C(Nc1cccc2c(=O)cc(-c3nnn[nH]3)oc12)c1ccc(OCCCCc2ccccc2)cc1	87
CC(O)(C[S+](=O)([O-])c1ccc(F)cc1)C(=O)Nc1ccc(C#N)c(C(F)(F)F)c1 (configuration not stated)	114
NC(=O)C1CCCc2c1[nH]c1ccc(Cl)cc21 (configuration not stated)	96
Cc1c(N)nc([C@H](CC(N)=O)NC[C@@H](N)C(N)=O)nc1C(=O)N[C@H](C(=O)N[C@@H](C)[C@H](O)[C@@H](C)C(=O)N[C@@H](C(=O)NCCc1nc(-c2nc(C(=O)NCCC[S+](C)C)cs2)cs1)[C@@H](C)O)C(O[C@H]1O[C@H](CO)[C@H](O)[C@@H](O)[C@H]1O[C@H]1O[C@H](CO)[C@@H](O)[C@H](OC(N)=O)[C@@H]1O)c1c[nH]cn1 (some centres not stated)	84.5
CCCCCCCCc1ccc(CCC(N)(CO)CO)cc1	90.9
O=C(NNC(=O)c1ccc(CN[S+](=O)([O-])c2ccc(F)c(Cl)c2)cc1)c1ccccc1	129
CCCCCCOC(=O)/N=C(/N)c1ccc(NCc2nc3cc(C(=O)N(CCC(=O)OCC)c4ccccn4)ccc3n2C)cc1	115
CC(C)[C@@H](N(CCCN)C(=O)C1=CC=C(C)C=C1)C/2=N/C3=CC(=CC=C3C(=O)N2CC4=CC=CC=C4)Cl	121
CC(C)(C)c1cc(C=C(C#N)C#N)cc(Br)c1O	101

SMILES	viability
C[C@]12CC[C@@H]3c4ccc(OC(=O)N(CCCl)CCCl)cc4CC[C@H]3[C@@H]1CC[C@@H]2OP(=O)([O-])[O-].[Na+].[Na+]	124
O=C1CSC(=O)N1C(CCc1ccncc1)COc1ccc(-c2cccc([N+](=O)[O-])c2)cc1 (configuration not stated)	79.8
Cc1cn2c(-c3cn[nH]c3)cnc2c(Nc2ccc(C(=O)N3CCNCC3)cc2F)n1	60.9
O=C1Nc2ccccc2/C1=C1\Nc2ccccc2C1=O	104
NC(=O)c1ccc2[nH]ccc2c1	122
O=C1Cc2cc(CCN3CCN(c4nsc5ccccc45)CC3)c(Cl)cc2N1	100
COc1ccc(CC2SC(=O)NC2=O)cc1C(=O)NCc1ccc(C(F)(F)F)cc1 (configuration not stated)	95.6
CCN1C[C@]2(OC(=O)c3ccccc3NC(C)=O)CC[C@H](OC)[C@@]34[C@@H]2C[C@@H]([C@@H]13)[C@@]1(O)C[C@H](OC)[C@H]2C[C@@H]4[C@]1(O)[C@H]2OC	139
CC(C)n1cnc2c(NCCc3ccc(O)cc3)nc(-c3csc4ccccc34)nc21	112
O=c1[nH]c(=O)n([C@H]2C[C@H](O)[C@@H](CO)O2)cc1/C=C/Br	116
C[C@@H](Oc1cc(-c2cnn(C3CCNCC3)c2)cnc1N)c1c(Cl)ccc(F)c1Cl	76.6
N#Cc1ccc(C(c2ccc(C#N)cc2)n2cncn2)cc1	95.7
CC[S+](=O)([O-])N1CC(CC#N)(n2cc(-c3ncnc4[nH]ccc34)cn2)C1	144
COc1cc(CCc2cc(NC(=O)c3ccc(N4C[C@@H](C)N[C@@H](C)C4)cc3)n[nH]2)cc(OC)c1	81.8
COC1(C[S+]([O-])c2ccccc2)CCN(CCc2c[nH]c3ccc(F)cc23)CC1 (configuration not stated)	101
CCN(C)C(=O)Oc1cccc([C@H](C)N(C)C)c1	125
Oc1nc(-c2ccc(C(F)(F)F)cc2)nc2c1CSCC2	86.4
O=C1CCc2cc(OCCCCc3nnnn3C3CCCCC3)ccc2N1	107
Cc1ccc(-n2nc(C(C)(C)C)cc2NC(=O)Nc2ccc(OCCN3CCOCC3)c3ccccc23)cc1	56
C[N]1C=NC=C1[C@@](N)(C2=CC=C(Cl)C=C2)C3=CC=C4N(C)C(=O)\C=C(\C5=CC=CC(=C5)Cl)C4=C3	96.3
Cc1cccc(Nc2ccncc2[S+](=O)([O-])NC(=O)NC(C)C)c1	108

SMILES	viability
CC(C)Nc1cc(C(F)(F)F)cc2nc(NC(=O)c3cccnc3)nn12	113
CCCCCCCCCCCCCC(=O)N[C@H](CO)[C@H](O)c1ccc([N+](=O)[O-])cc1	116
Oc1ccc([C@@H]2Oc3ccc(O)cc3[C@@H]3CCC[C@@H]32)cc1	96.3
CCN(CC)CCOc1ccc(Cc2ccccc2)cc1	101
O=C([O-])[C@H](CC(=O)N1C[C@H]2CCCC[C@H]2C1)Cc1ccccc1	144
CC(C)[C@H]1C(=O)N[C@H](CO)Cc2c[nH]c3cccc(c23)N1C	107
C[C@H](NC(=O)/C(C#N)=C/c1cccc(Br)n1)c1ccccc1	31.7
C=CCc1ccc(O)c(-c2ccc(O)c(CC=C)c2)c1	80.6
NC(CO)C(=O)NNCc1ccc(O)c(O)c1O (configuration not stated)	96.3
CN1C(=O)C[C@H](C(=O)N[C@@H](Cc2cnc[nH]2)C(=O)N2CCC[C@H]2C(N)=O)NC1=O	103
COc1nc(C)cnc1N[S+](=O)([O-])c1cccnc1-c1ccc(-c2nnco2)cc1	138
C[C@]12CC[C@H]3[C@@H](CC[C@H]4NC(=O)\C=C/[C@]34C)[C@@H]1CC[C@@H]2C(=O)NC5=CC(=CC=C5C(F)(F)F)C(F)(F)F	96.3
CCC(C)N1\N=C/N(C1=O)C2=CC=C(C=C2)N3CCN(CC3)C4=CC=C(OC[C@H]5CO[C@@](C[N]6C=NC=N6)(O5)C7=CC=C(Cl)C=C7Cl)C=C4 (some centres not stated)	101
C[C@H](CCC(=O)O)[C@H]1CCC2C3C[C@H](O)[C@@H]4C[C@H](O)CC[C@]4(C)C3CC[C@@]21C (some centres not stated)	108
N[S+](=O)([O-])c1cc2c(cc1Cl)NCN[S+]2(=O)[O-]	108
CCc1cc(C(N)=S)ccn1	120
Cc1cnc(Nc2cccc(CN3CCOCC3)c2)nc1Nc1cccc([S+](=O)([O-])NC(C)(C)C)c1	101
CC1=C(C)C2=C(S1)[N]3C(=NN=C3[C@H](CC(=O)OC(C)(C)C)/N=C2/C4=CC=C(Cl)C=C4)C	65
Cc1cc(CN2CCN(c3c(Br)cnc4[nH]c(-c5ccc(N6CCN(C)CC6)cc5)nc34)CC2)no1	108
CCCCN(CCCC)CC(O)c1cc(Cl)cc2c1-c1ccc(Cl)cc1/C2=C/c1ccc(Cl)cc1 (configuration not stated)	104
O=C(CCCN1CCC(O)(c2ccc(Cl)cc2)CC1)c1ccc(F)cc1	105

SMILES	viability
C[C@@H]1CN[C@H]2[C@@H](C)[C@@]\3(CC[C@H]\4[C@@H]5C/C=C6/C[C@@H](O)CC[C@]6(C)[C@H]5CC4=C3C)O[C@@H]2C1	116
C[C@H]1[C@@H](OC(=O)CCC(=O)O)O[C@@H]2O[C@@]3(C)CC[C@H]4[C@H](C)CC[C@@H]1[C@@]24OO3	97.7
COc1cc(C(=O)NS(=O)(=O)c2ccccc2C)ccc1Cc1cn(C)c2ccc(NC(=O)OC3CCCC3)cc12	28.5
CC1OC(OC/2=C(/OC3=C(C(=CC(=C3)O)O)C2=O)C4=CC=C(O)C=C4)C(O)C(OC(C)=O)C1OC(C)=O (configuration not stated)	116
C[C@]12CC[C@@H]3c4ccc(O)cc4C[C@@H](CCCCCCCCC[S+]([O-])CCCC(F)(F)C(F)(F)F)[C@H]3[C@@H]1CC[C@@H]2O (some centres not stated)	114
Cn1cc(-c2ccncc2)c(-c2ccc(OCc3ccc4ccccc4n3)cc2)n1	98.3
CC1(C)CC(O)CC(C)(C)N1[O]	121
COc1ccccc1N1CCN(CC(O)COc2cccc3ccccc23)CC1 (configuration not stated)	99.1
CCOC(=O)O[C@]1(C(=O)OCCl)CC[C@H]2[C@@H]3CCC4=CC(=O)C=C[C@]4(C)[C@H]3[C@@H](O)C[C@@]21C	149
CCn1c(-c2nonc2N)nc2cncc(CNC3CCNCC3)c21	121
CNC(=O)c1cc(COc2nnc(Nc3ccc(Cl)cc3)c3ccoc23)ccn1	113
C=CC(=O)Nc1cccc(Oc2nc(Nc3ccc(N4CCN(C)CC4)cc3)ncc2Cl)c1	26.8
O=C/1\C=C(/OC(=C1)/C2=C3SC4=C(SC3=CC=C2)C=CC=C4)N5CCOCC5	111
O=C(Nc1cccc(C(F)(F)F)c1)Nc1cc([S+](=O)([O-])NC2CC2)ccc1-c1ccsc1	124
O=C(O)c1cccnc1	103
COc1ccccc1OCC(O)COC(N)=O (configuration not stated)	117
CCCCc1oc2ccccc2c1C(=O)c1cc(I)c(OCCN(CC)CC)c(I)c1	95.4
COc1ccc(-n2c(C)c([N+](=O)[O-])c3ccc(O)cc32)cc1	87
O=P(O)(O)C(O)(Cc1cccnc1)P(=O)(O)[O][Na] (configuration not stated)	123
